Consider one molecule from patent US20250082763A1, “COMBINATION DRUG FOR TREATING TRIPLE-NEGATIVE BREAST CANCER” (HINOVA PHARMACEUTICALS INC., priority 2022, published 2025).

The subject of assay [1] is MDA-MB-453 cells. Put plainly: Inhibition of proliferation of MDA-MB-453 cells (CCK-8 or CTG, 7-10 days). Type of assay: cell-based. Here is the method:
Triple negative breast cancer MDA-MB-453 cells in logarithmic growth stage were inoculated into a 96-well plate at a concentration of 4×10^3 cells/well, and then incubated in an incubator at 37° C., 5% CO2, and saturated humidity for 24 h or 48 h. To the negative control well, was added RPMI 1640 cell medium containing 10% fetal bovine serum in the same volume as the drug. After cultured for 24 h or 48 h, to the 96-well plate, were added AR PROTACs compounds 162, 177, 230, 259, 279, 281, 282, 325, 357, 400, ARV-110, ARV-766 and AR inhibitor HC-1119, respectively. The concentrations of compounds 177, 230, 259, 279, 281, 282, 325, 357, 400, ARV-110, and ARV-766 are 0 μM, 0.002 μM, 0.005 μM, 0.014 μM, 0.041 μM, 0.123 μM, 0.370 μM, 1.111 μM, 3.333 μM or 10 μM; while the concentrations of HC-1119 are 0 μM, 1.23 μM, 3.70 μM, 11.11 μM, 33.33 μM or 100 μM.
After addition of the drugs and co-incubation for 7-10 days, 10 μL of CCK-8 was added to each well, and then the plate was further cultured for 2 h. The absorbance value (OD) of each well was measured using a microplate reader at a wavelength of 450 nm. The survival rate was calculated using Prism software, the relative survival rate=(OD value of drug well/OD value of control well)×100%. Alternatively, 100 μL of medium was removed from each well, and then 50 μL of CTG was added. The plate was shaken in the dark for 2 min, allowed to stand for 10 min, and then measured using a microplate reader in Luminescence mode. Prism software was used to calculate the survival rate, the relative survival rate=(the RLU value of drug well/the RLU value of control well)×100%.

The test system of assay [2] is AR+ TNBC cells (MDA-MB-453, SUM159PT and MFM-223) and AR- TNBC (MDA-MB-468 and HCC1937). Put plainly: Antiproliferation in AR positive and negative TNBC cells (summary over the cell line panel). The format is cell-based. Particulars: MDA-MB-453, SUM159PT, MFM-223, MDA-MB-468, HCC1937. Here is the method: For MDA-MB-453, MFM-223, SUM159PT, MDA-MB-468, and HCC1937, 4,000, 3,000, 1,000, 3,000, and 3,000 cells were plated per well in 96-well microplates (Corning Inc), respectively. Cells were treated with serial dilutions of tested compounds with the maximum working concentration of 10 μM. Cell survival was measured 5 days later using a CellTiter-Glo luminescent cell viability assay kit (Promega Corporation). Luminescence was recorded by FLUOstar Omega microplate reader (BMG Labtech). Half maximal inhibitory concentration (IC50) was determined with GraphPad Prism using baseline correction (by normalizing to dimethyl sulfoxide (DMSO) control)

For the molecule `[2H]C([2H])([2H])NC(=O)c1ccc(N2C(=S)N(c3ccc(C#N)c(C(F)(F)F)c3)C(=O)C2(C)C)cc1F` [HC-1119], the “inhibitory effect on the proliferation of MDA-MB-453 cells” value in assay [1] is reported as “weak inhibitory effect”. In addition, in assay [2], the “anti-proliferation activity in all five cell lines” value is recorded as “failed to show anti-proliferation activity”.
